pIC50: −log10 of the molar value. Where two headings read alike, the source gives them in different places.
Tests used:
[1] = tested on: λ-carrageenan-induced leucocyte infiltration and oedema; assay: Carrageenan air pouch model; format: in vivo, mouse; conditions: for leucocyte influx into the air pouch at 4-h: oral SNT-8370 30, verdiperstat 15, PXS-4707 6, dexamethasone 10 mg/kg
[2] = target: T1, MPO (Homo sapiens, UniProt P05164); assay: MPO LDL lipid peroxidation assay; format: biochemical
[3] = for drug concentration in peritoneal lavage fluid: 5 h after gavage
[4] = tested on: LPS-induced lung leucocyte infiltration; assay: Acute lung injury; format: in vivo, mouse; conditions: 6 h post-LPS; oral SNT-8370 30, verdiperstat 30, PXS-4707 10 mg/kg
[5] = tested on: thioglycolate broth-induced peritoneal leucocyte infiltration; assay: Peritonitis leucocyte trafficking model; format: in vivo, mouse; conditions: 6 h; oral SNT-8370 60, verdiperstat 60, PXS-4707 6 mg/kg
[6] = target: MPO (Mus musculus, UniProt P11247); assay: Acute peritonitis; format: in vivo; conditions: for reduction of peritoneal MPO activity: oral 60 mg/kg; for effect on lavage fluid MPO protein concentration (ELISA): thioglycolate broth/zymosan A-treated mice
Chain of MPO (Mus musculus, UniProt P11247) (P11247 139-718): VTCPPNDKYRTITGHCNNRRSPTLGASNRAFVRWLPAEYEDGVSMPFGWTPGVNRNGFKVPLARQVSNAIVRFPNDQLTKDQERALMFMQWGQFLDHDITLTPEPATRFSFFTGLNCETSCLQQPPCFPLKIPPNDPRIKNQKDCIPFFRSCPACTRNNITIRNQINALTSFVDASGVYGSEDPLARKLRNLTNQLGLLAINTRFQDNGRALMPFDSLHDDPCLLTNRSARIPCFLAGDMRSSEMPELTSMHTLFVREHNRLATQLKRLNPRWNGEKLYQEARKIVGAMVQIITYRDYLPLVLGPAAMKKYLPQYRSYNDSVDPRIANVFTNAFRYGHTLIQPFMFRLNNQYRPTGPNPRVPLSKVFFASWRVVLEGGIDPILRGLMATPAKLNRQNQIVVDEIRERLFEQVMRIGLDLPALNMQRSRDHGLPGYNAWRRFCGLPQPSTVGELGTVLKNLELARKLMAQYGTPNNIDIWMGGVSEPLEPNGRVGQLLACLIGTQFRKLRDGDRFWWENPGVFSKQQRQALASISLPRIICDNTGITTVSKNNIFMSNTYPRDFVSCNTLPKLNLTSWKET

[7] = target: VAP-1 (Mus musculus, UniProt O70423); assay: VAP-1 activity in adipose tissue; format: in vivo; conditions: 6 h; oral SNT-8370 60 mg/kg, PXS-4707 6 mg/kg
Chain of VAP-1 (O70423 whole entry): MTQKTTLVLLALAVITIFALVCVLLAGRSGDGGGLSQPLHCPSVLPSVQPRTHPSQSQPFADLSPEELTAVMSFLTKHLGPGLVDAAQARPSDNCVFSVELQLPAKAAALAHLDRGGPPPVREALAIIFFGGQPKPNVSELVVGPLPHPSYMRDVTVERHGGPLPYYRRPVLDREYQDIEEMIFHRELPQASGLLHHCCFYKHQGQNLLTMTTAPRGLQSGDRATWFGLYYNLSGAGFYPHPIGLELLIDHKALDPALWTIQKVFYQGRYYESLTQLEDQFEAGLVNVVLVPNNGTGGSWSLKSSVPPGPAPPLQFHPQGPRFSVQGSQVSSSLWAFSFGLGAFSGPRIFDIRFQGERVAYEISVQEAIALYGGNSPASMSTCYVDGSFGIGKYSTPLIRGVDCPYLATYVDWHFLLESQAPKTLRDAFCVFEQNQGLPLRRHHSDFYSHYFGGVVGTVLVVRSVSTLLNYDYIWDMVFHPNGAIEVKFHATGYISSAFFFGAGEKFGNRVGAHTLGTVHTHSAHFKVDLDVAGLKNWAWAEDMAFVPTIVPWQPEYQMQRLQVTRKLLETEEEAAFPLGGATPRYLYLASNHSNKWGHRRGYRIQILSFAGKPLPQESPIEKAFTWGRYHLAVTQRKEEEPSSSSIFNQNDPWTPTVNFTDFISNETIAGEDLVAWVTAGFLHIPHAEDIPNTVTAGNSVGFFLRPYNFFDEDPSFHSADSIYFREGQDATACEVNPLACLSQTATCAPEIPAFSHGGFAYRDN

[8] = target: native human MPO (Homo sapiens, UniProt P05164); assay: MPO-catalysed H2O2 consumption, Amplex Red assay; format: biochemical
Chain of native human MPO (P05164 279-745): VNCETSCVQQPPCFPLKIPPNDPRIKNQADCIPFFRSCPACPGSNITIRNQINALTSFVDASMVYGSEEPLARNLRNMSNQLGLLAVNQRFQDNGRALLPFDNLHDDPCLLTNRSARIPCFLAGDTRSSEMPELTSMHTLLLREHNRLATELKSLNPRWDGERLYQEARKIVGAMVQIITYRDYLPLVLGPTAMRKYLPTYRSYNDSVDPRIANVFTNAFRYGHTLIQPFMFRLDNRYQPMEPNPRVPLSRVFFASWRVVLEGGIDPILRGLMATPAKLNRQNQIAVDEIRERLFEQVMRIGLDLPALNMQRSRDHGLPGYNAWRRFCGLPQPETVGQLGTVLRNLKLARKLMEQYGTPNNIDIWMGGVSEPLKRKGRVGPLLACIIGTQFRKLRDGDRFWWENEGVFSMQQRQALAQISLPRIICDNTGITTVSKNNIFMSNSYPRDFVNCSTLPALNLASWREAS
Chain of native human MPO (P05164 165-273): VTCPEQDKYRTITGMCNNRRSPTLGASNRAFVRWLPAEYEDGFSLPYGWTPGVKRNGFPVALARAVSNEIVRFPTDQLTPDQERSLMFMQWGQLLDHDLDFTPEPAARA

[9] = target: T1, MPO; assay: MPO partition ratio assay; format: biochemical; conditions: mean ± SEM, n = 3; MPO 60 nM, 2 μM H2O2
[10] = target: MAO-A, human (Homo sapiens, UniProt P21397); assay: MAO-A activity assay; format: biochemical; conditions: compared to MPO or VAP-1
Chain of MAO-A, human (P21397 whole entry, the tested form may be a part): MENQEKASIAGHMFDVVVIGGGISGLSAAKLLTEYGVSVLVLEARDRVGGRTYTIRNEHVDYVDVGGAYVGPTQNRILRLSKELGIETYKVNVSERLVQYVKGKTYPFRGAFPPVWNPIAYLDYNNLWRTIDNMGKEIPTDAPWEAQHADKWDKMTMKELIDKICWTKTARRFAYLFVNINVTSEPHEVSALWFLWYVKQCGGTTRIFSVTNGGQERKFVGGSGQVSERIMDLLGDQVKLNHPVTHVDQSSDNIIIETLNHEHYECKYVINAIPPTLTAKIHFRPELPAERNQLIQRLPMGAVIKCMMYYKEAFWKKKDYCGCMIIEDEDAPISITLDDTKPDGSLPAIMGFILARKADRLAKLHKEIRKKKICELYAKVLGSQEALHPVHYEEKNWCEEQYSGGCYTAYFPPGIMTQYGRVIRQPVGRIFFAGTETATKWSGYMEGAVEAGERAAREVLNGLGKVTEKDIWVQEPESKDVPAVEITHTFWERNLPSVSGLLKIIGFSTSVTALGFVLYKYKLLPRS

[11] = tested on: myocardial ischaemia/reperfusion injury; assay: Myocardial infarction; format: in vivo, rat; conditions: 60 mg/kg oral twice daily, 4 weeks
[12] = target: T1, MPO; assay: MPO chlorination assay; format: biochemical
[13] = target: LOX, human (Homo sapiens, UniProt P28300); assay: LOX activity assay; format: biochemical; conditions: compared to MPO or VAP-1
Chain of LOX, human (P28300 169-417): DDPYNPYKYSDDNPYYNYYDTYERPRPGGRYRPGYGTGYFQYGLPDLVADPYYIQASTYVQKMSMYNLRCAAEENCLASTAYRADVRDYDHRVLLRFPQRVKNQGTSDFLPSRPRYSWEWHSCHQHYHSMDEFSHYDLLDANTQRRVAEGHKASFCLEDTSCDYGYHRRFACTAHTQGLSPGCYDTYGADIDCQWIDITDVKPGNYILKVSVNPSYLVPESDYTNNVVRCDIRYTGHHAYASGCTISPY

[14] = tested on: panel of 68 enzymes, receptors, ion channels and transporters; conditions: 10 µM; 68 targets screened
[15] = target: recombinant human VAP-1 (Homo sapiens, UniProt Q16853); format: biochemical; conditions: 30 μM, 40 min, 37 °C
Chain of recombinant human VAP-1 (Q16853 34-763): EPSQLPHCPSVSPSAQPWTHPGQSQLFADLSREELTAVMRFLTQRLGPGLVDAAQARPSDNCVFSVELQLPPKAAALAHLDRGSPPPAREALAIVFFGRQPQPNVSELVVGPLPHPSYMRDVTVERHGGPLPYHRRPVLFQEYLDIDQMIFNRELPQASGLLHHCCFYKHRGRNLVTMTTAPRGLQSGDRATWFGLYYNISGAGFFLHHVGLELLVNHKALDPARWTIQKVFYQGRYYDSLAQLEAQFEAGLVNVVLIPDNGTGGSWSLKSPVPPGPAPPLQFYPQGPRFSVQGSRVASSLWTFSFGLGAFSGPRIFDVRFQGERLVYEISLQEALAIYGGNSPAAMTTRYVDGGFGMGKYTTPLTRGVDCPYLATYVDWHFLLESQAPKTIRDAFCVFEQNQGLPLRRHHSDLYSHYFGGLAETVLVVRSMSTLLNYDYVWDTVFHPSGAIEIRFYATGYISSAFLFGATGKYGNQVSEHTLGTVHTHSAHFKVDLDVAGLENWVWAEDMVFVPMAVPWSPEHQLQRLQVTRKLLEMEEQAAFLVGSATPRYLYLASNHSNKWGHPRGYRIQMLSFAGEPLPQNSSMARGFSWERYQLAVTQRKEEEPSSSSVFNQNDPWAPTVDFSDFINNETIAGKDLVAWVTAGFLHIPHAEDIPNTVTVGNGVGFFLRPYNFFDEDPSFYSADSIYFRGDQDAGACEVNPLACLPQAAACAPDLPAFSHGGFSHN

[16] = tested on: panel of 14 common transporters; format: in vitro ADME, human; conditions: 30 µM; 14 targets screened
[17] = target: T1, MPO; assay: MPO-catalysed H2O2 consumption, H2O2-specific electrode; format: biochemical
[18] = in vivo; format: in vivo, C57Bl/6J mice; conditions: mouse
[19] = tested on: HepG2 cells; format: cell-based; conditions: tested up to 100 μM in HepG2 cells
[20] = target: human DAO (Homo sapiens, UniProt P19801); format: biochemical; conditions: 30 μM, 40 min, 37 °C
Chain of human DAO (P19801 20-751): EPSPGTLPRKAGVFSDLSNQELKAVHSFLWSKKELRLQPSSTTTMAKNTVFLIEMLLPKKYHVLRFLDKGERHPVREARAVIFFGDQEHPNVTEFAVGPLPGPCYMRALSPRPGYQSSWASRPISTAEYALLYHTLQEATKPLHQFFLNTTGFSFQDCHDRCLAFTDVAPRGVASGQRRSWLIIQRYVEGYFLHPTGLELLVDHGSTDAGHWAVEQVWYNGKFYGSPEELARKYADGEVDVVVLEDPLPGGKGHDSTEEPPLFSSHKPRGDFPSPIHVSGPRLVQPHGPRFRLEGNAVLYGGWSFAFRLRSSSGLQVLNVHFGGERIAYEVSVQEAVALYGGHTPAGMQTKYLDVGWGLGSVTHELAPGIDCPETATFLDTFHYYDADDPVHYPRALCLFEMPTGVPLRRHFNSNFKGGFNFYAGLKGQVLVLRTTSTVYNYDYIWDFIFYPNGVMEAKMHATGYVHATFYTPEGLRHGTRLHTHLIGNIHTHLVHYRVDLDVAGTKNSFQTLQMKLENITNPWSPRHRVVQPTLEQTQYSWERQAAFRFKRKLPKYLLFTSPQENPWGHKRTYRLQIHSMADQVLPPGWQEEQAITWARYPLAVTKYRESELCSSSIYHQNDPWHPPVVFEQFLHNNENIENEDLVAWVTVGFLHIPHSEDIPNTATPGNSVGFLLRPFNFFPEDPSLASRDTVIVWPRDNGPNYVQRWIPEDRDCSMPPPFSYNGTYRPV

[21] = SNT-8370 30, verdiperstat 15, PXS-4707 6, dexamethasone 10 mg/kg

T1 sequence (P05164 279-745): as the sequence (P05164 279-745) above
T1 sequence (P05164 165-273): as the sequence (P05164 165-273) above

C[C@@H]1C[C@H]2[C@@H]3CCC4=CC(=O)C=C[C@]4(C)[C@@]3(F)[C@@H](O)C[C@]2(C)[C@@]1(O)C(=O)CO [dexamethasone]
air pouch exudate volume at 12-h [1, 21]: significantly reduced | leucocyte influx into the air pouch at 4-h [1]: significantly reduced

CC(C)OCCn1c(=S)[nH]c(=O)c2[nH]ccc21 [Verdiperstat, reference compound]
pIC50 [2]: 6.22 | air pouch exudate volume at 12-h [1, 21]: neither verdiperstat nor PXS-4707, significantly reduced | leucocyte influx into the air pouch at 4-h [1]: significantly reduced | drug concentration in peritoneal lavage fluid ([3]; oral 60 mg/kg): > 10 ng/mL | lung infiltration of neutrophils (BALF) [4]: non-significant downward trends | lung infiltration of total leucocytes (BALF) [4]: non-significant downward trends | neutrophils in the peritoneum [5]: Neither of the monotherapy treatments showed a significant effect | total immune cells (leucocytes) in the peritoneum [5]: Neither of the monotherapy treatments showed a significant effect | reduction of peritoneal MPO activity [6]: > 50% | effect on lavage fluid MPO protein concentration (ELISA) [6]: no effect

NC/C(=C\F)COc1cccc(Cn2c(=S)[nH]c(=O)c3[nH]cnc32)c1 [SNT-8370, (E)-3-(3-((2-(aminomethyl)-3-fluoroallyl)oxy)benzyl)-2-thioxo-1,2,3,7-tetrahydro-6H-purin-6-one]
inhibition of in vivo VAP-1 activity in adipose tissue [7]: > 90% | MPO IC50 more potent than AZD5904 [8]: ~ 3 fold | MPO IC50 more potent than verdiperstat [8]: ~ 2 fold | partition ratio for MPO inhibition [9]: 15.7 ± 2.4 | selectivity index over MAO-A [10]: > 1000 fold | cardiac fibrosis (picrosirius red, Masson's trichrome, periostin) [11]: significantly reduce | ejection fraction post-MI [11]: prevented the significant post-MI reduction | fractional shortening post-MI [11]: prevented the significant post-MI reduction | fold lower IC50 than verdiperstat or PF06282999, HOCl production [12]: 2–5 fold | selectivity index over LOX [13]: > 1000 fold | pIC50 [2]: 7.70 | fold lower IC50 than verdiperstat, LDL lipid peroxidation [2]: 30 fold | Eurofins PanLabs screen, hits (>50% inhibition) [14]: No significant off-targets | Substrate turnover, VAP-1 [15]: No oxidative turnover | Eurofins Transporter screen, hits (>50% inhibition) [16]: no significant inhibition | air pouch exudate volume at 12-h ([1]; SNT-8370 10 mg/kg): significantly reduced | air pouch exudate volume at 12-h [1, 21]: significantly reduced | leucocyte influx into the air pouch at 4-h [1]: significantly reduced | fold lower IC50 than verdiperstat or PF06282999, H2O2 consumption [17]: 5-8 fold | drug concentration in peritoneal lavage fluid ([3]; oral 10 mg/kg): 1.1 ng/mL | drug concentration in peritoneal lavage fluid ([3]; oral 30 mg/kg): 1.5 ng/mL | drug concentration in peritoneal lavage fluid, molar equivalent ([3]; oral 60 mg/kg): 170 nM | drug concentration in peritoneal lavage fluid ([3]; oral 60 mg/kg): ~ 60 ng/mL | drug concentration in peritoneal lavage fluid, molar equivalent ([3]; oral 10 and 30 mg/kg): < 4 nM | lung infiltration of neutrophils (BALF) [4]: significantly reduced | lung infiltration of total leucocytes (BALF) [4]: significantly reduced | half-life ([18]; C57Bl/6J, in vivo, po): 2 to 4 h | time of highest drug concentrations after oral gavage [18]: 1 h | drug in the brain ([18]; oral gavage): No drug was detectable | neutrophils in the peritoneum [5]: significantly reduced | total immune cells (leucocytes) in the peritoneum [5]: significantly reduced | Cell health (cytotoxicity) [19]: no toxicity | Substrate turnover, DAO [20]: no turnover observed | effect on peritoneal MPO activity ([6]; oral 10 mg/kg): no effect | effect on peritoneal MPO activity ([6]; oral 30 mg/kg): no effect | reduction of peritoneal MPO activity [6]: > 50% | effect on lavage fluid MPO protein concentration (ELISA) [6]: no effect
